Experimental findings from ChEMBL document CHEMBL3046739, “Effects of imidacloprid on transmission of tomato spotted wilt tospovirus to pepper, tomato and tobacco by Frankliniella fusca Hinds (Thysanoptera: Thripidae)” (2001) are described below.

The structures appear in SMILES notation. Activity calls are given as the source filed them. The rule behind the calls is not given here.

For assay [1], the system named is Frankliniella fusca. The assay is described as follows: Insecticidal activity against Frankliniella fusca assessed as effect on probing/feeding bout on pepper plants at 14.4 g a.i./1000 plants measured as number of potential drops by electronic penetration graph analysis (reference value: 0.28 +/- 0.03 /hr). Format: functional.
Assay [2] deals with Frankliniella fusca. The assay is described as follows: Insecticidal activity against Frankliniella fusca assessed as reduction in tomato spotted wilt tospovirus transmission in compound pre-treated pepper plant at 11.3 g a.i./1000 plants 8 days prior to 48 hr insect-infestation followed by foliar application at 7.1 g a.i./1000 plants measured after 21 days in field conditions. The assay is classed as functional. Set-up: scale not given: the % may be the effect or the level left.

Assay [3] deals with Frankliniella fusca. The assay is described as follows: Insecticidal activity against Frankliniella fusca assessed as tomato spotted wilt tospovirus transmission in compound pre-treated tobacco plant at 9.9 g a.i./1000 plants 60 days prior to 48 hr insect-infestation followed by foliar application at 7.1 g a.i./1000 plants measured after 21 days in green house conditions (reference value: 82.5 +/- 0.05%). Format: functional.

Assay [4] has as its system Frankliniella fusca. Put plainly: Insecticidal activity against Frankliniella fusca assessed as reduction in tomato spotted wilt tospovirus transmission in compound pretreated pepper plant at 9.9 g a.i./1000 plants 60 days prior to 48 hr insect-infestation followed by foliar application at 7.1 g a.i./1000 plants measured after 21 days in green house conditions. Set-up: scale not given: the % may be the effect or the level left. The assay is classed as functional.

Assay [5] has as its system Frankliniella fusca. Put plainly: Insecticidal activity against Frankliniella fusca assessed as reduction in tomato spotted wilt tospovirus transmission in compound pre-treated tomato plant at 9.9 g a.i./1000 plants 60 days prior to 48 hr insect-infestation followed by foliar application at 7.1 g a.i./1000 plants measured after 21 days in green house conditions. The assay is classed as functional. Also on record: scale not given: the % may be the effect or the level left.

In assay [6] the test system is Frankliniella fusca. Put plainly: Insecticidal activity against Frankliniella fusca assessed as effect on probing/feeding bout on mustard plants at 14.4 g a.i./1000 plants measured as duration of potential drops by electronic penetration graph analysis (reference value: 0.06 +/- 0.03 min). Format: functional.
In assay [7] the test system is Frankliniella fusca. The assay is described as follows: Insecticidal activity against Frankliniella fusca assessed as effect on probing/feeding bout on pepper plants at 14.4 g a.i./1000 plants measured as duration of potential drops by electronic penetration graph analysis (reference value: 0.04 +/- 0.02 min). The assay is classed as functional.
Assay [8] relates to Frankliniella fusca. The assay is described as follows: Insecticidal activity against Frankliniella fusca assessed as effect on probing/feeding bout on pepper plants at 7.1 g a.i./1000 plants measured as duration of potential drops by electronic penetration graph analysis (reference value: 0.01 +/- 0.01 min). Format: functional.
Assay [9] relates to Frankliniella fusca. The assay is described as follows: Insecticidal activity against Frankliniella fusca immature thrips isolated from infected tobacco plants assessed reduction in tomato spotted wilt tospovirus transmission on petunia leaf by DAS-ELISA. The assay is classed as functional. Set-up: scale not given: the % may be the effect or the level left. A general note: An ELISA detects its analyte on a solid surface through an enzyme-linked reagent.

Assay [10] has as its system Frankliniella fusca. Put plainly: Insecticidal activity against Frankliniella fusca assessed as effect on probing/feeding bout on pepper plants at 7.1 g a.i./1000 plants measured as number of potential drops by electronic penetration graph analysis (reference value: 0.03 +/- 0.01 /hr). Format: functional.
For assay [11], the system named is Frankliniella fusca. Put plainly: Insecticidal activity against Frankliniella fusca assessed as effect on probing/feeding bout on mustard plants at 14.4 g a.i./1000 plants measured as number of potential drops by electronic penetration graph analysis (reference value: 0.2 +/- 0.09 /hr). Format: functional.
Assay [12] relates to Frankliniella fusca. The assay is described as follows: Insecticidal activity against Frankliniella fusca assessed as effect on probing/feeding bout on mustard plants at 7.1 g a.i./1000 plants measured as number of potential drops by electronic penetration graph analysis (reference value: 0.7 +/- 0.11 /hr). The assay is classed as functional.
Assay [13] deals with Frankliniella fusca. The assay is described as follows: Insecticidal activity against Frankliniella fusca assessed as reduction in tomato spotted wilt tospovirus transmission in compound pretreated tomato plant at 11.3 g a.i./1000 plants 8 days prior to 48 hr insect-infestation followed by foliar application at 7.1 g a.i./1000 plants measured after 21 days in field conditions. The assay is classed as functional. Also on record: scale not given: the % may be the effect or the level left.

Assay [14] deals with Frankliniella fusca. Put plainly: Insecticidal activity against Frankliniella fusca assessed as effect on probing/feeding bout on mustard plants at 7.1 g a.i./1000 plants measured as duration of potential drops by electronic penetration graph analysis (reference value: 1.28 +/- 0.15 min). Format: functional.
The test system of assay [15] is Frankliniella fusca. Put plainly: Insecticidal activity against Frankliniella fusca assessed as reduction in number of thrips isolated per compound pre-treated tobacco plant infected with tomato spotted wilt tospovirus at 9.9 g a.i./1000 plants in green house conditions relative to control. Format: functional, organism-based.

For `O=[N+]([O-])/N=C1\NCCN1Cc1ccc(Cl)nc1` [IMIDACLOPRID], the Activity with Frankliniella fusca [1] was found to be 1.84 h⁻¹; in the assay with Frankliniella fusca [2], 73%; in the assay with Frankliniella fusca [3], 11.1%; in the assay on Frankliniella fusca [4], 74%; in the assay with Frankliniella fusca [5] it was 82%; in the assay on Frankliniella fusca [9] it was 6.4%. The Activity in the assay with Frankliniella fusca [10] is 1.53 h⁻¹; in the assay with Frankliniella fusca [11], 1.53 h⁻¹; in the assay with Frankliniella fusca [12], 2.12 h⁻¹; in the assay with Frankliniella fusca [13] it was 87%. The Time with Frankliniella fusca [6] is 0.79 min; in the assay on Frankliniella fusca [7], 0.52 min; in the assay with Frankliniella fusca [8] it was 0.39 min; with Frankliniella fusca [14] it was 1.41 min. The result in the assay with Frankliniella fusca [15] was Active.
